Data on 21 compounds can be found in US12692262B2, “Substituted ureas as orexin receptor agonists” (Merck Sharp & Dohme LLC, priority 2020, dated 2026).

Structures are written as SMILES.

This assay deals with T1, human OX2R (Homo sapiens, UniProt O43614).
T1 construct: expressed in transfected cells; host or cells: CHO (Chinese hamster ovary) cells grown under G418 selection
T1 sequence (O43614 1-444): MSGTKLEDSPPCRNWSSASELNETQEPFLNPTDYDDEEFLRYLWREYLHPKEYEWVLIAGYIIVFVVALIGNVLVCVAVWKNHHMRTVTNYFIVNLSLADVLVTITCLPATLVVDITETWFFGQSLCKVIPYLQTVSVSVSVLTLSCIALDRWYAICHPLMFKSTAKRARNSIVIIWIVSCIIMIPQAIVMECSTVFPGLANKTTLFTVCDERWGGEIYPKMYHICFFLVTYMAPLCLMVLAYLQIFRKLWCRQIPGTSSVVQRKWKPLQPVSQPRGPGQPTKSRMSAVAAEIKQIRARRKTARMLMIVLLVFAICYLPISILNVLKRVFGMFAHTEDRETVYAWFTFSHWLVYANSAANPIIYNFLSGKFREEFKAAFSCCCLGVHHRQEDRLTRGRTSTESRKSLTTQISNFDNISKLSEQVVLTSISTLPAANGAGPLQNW
The assay can be described thus: IPOne (IP-1 accumulation) assay in CHO cells expressing human OX2R. It counts as cell-based. The following applies: for EC50: CHO cells expressing human OX2R, IP-One assay, 2 h incubation, four parameter logistic fit, read-out: OX2R Potency, EC50; for % of maximum agonist effect (relative to Orexin A): percent effect vs mean max effect of a reference compound at 1 uM (100% activity vs Orexin A), human OX2R. The method, boiled down: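 Agonist EC50 values come from the inflection point of four-parameter logistic curves. Read-out is IP-1 accumulation detected with lysis buffer plus D2 and AB-cryptate reagents (HTRF), in CHO cells engineered to express human OX2R.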

The term EC50 denotes the concentration needed to bring the measured effect to its halfway point. As for `CC[C@H](CCC(F)(F)F)NC(=O)N(CC)[C@H](C)c1ccc(OC)c(-c2cnc3[nH]ccc3c2)c1` [Example 8-5, 1-ethyl-1-((R)-1-(4-methoxy-3-(1H-pyrrolo[2,3-b]pyridin-5-yl)phenyl)ethyl)-3-((R)-6,6,6-trifluorohexan-3-yl)urea], the EC50 worked out at 47.8 nM and the “% of maximum agonist effect (relative to Orexin A)” value amounted to 96.1%.

`CCC(CCC(F)(F)F)NC(=O)N(CC)[C@H](C)c1cccc(-c2cnc3nccn3c2)c1` (stereo partly drawn) [Example 8-7, 1-ethyl-1-((R)-1-(3-(imidazo[1,2-a]pyrimidin-6-yl)phenyl)ethyl)-3-(6,6,6-trifluorohexan-3-yl)urea]: the concentration for a half-maximal effect (EC50) came out at 180 nM and the “% of maximum agonist effect (relative to Orexin A)” value amounted to 99.3%.

With `CCC(CCC(F)(F)F)NC(=O)N(CC)[C@H](C)c1cccc(-c2cn3ccnc3cc2C)c1` (stereo partly drawn) [Example 8-8, 1-ethyl-1-((R)-1-(3-(7-methylimidazo[1,2-a]pyridin-6-yl)phenyl)ethyl)-3-(6,6,6-trifluorohexan-3-yl)urea], the concentration giving a half-maximal response (EC50) was found to be 248 nM and the “% of maximum agonist effect (relative to Orexin A)” value is 102.1%.

As to `CCN(C(=O)N[C@@H](CCC(F)(F)F)C(F)(F)F)[C@H](C)c1cccc(-c2cc(OC)c3ncc(Cl)n3c2)c1` [Example 8-9, 1-((R)-1-(3-(3-chloro-8-methoxyimidazo[1,2-a]pyridin-6-yl)phenyl)ethyl)-1-ethyl-3-((S)-1,1,1,5,5,5-hexafluoropentan-2-yl)urea], the EC50 came to 0.7 nM and the “% of maximum agonist effect (relative to Orexin A)” value worked out at 99.7%.

On to `CCN(C(=O)N[C@@H](CCC(F)(F)F)C(F)(F)F)[C@H](C)c1cccc(-c2cc(OC)c3nc(Cl)cn3c2)c1` [Example 8-10, 1-((R)-1-(3-(2-chloro-8-methoxyimidazo[1,2-a]pyridin-6-yl)phenyl)ethyl)-1-ethyl-3-((S)-1,1,1,5,5,5-hexafluoropentan-2-yl)urea], for which the EC50 worked out at 1.5 nM and the “% of maximum agonist effect (relative to Orexin A)” value stood at 99.6%.

As to `CCN(C(=O)N[C@@H](CCC(F)(F)F)C(F)(F)F)[C@H](C)c1cccc(-c2cc(OC)c3ncnn3c2)c1` [Example 8-11, 1-ethyl-3-((S)-1,1,1,5,5,5-hexafluoropentan-2-yl)-1-((R)-1-(3-(8-methoxy-[1,2,4]triazolo[1,5-a]pyridin-6-yl)phenyl)ethyl)urea], the EC50 amounted to 2 nM and the “% of maximum agonist effect (relative to Orexin A)” value was determined as 95.4%.

As to `CCN(C(=O)N[C@@H](CCC(F)(F)F)C(F)(F)F)[C@H](C)c1cccc(-c2ccc3ncc(N)n3c2)c1` [Example 8-12, 1-((R)-1-(3-(3-aminoimidazo[1,2-a]pyridin-6-yl)phenyl)ethyl)-1-ethyl-3-((S)-1,1,1,5,5,5-hexafluoropentan-2-yl)urea], the EC50 amounted to 17.4 nM and the “% of maximum agonist effect (relative to Orexin A)” value is 96.7%.

In the case of `CCN(C(=O)N[C@@H](CCC(F)(F)F)C(F)(F)F)[C@H](C)c1cccc(-c2cc(OC)c3ncc(Cl)n3c2Cl)c1` [Example 8-14, 1-((R)-1-(3-(3,5-dichloro-8-methoxyimidazo[1,2-a]pyridin-6-yl)phenyl)ethyl)-1-ethyl-3-((S)-1,1,1,5,5,5-hexafluoropentan-2-yl)urea], the EC50 was found to be 109 nM and the “% of maximum agonist effect (relative to Orexin A)” value stood at 100.1%.

In the case of `CC[C@H](CCC(F)(F)F)NC(=O)N(CC)[C@H](C)c1cccc(-c2cn3ccnc3cc2Cl)c1` [Example 8-15, 1-((R)-1-(3-(7-chloroimidazo[1,2-a]pyridin-6-yl)phenyl)ethyl)-1-ethyl-3-((R)-6,6,6-trifluorohexan-3-yl)urea], the EC50 came out at 188 nM and the “% of maximum agonist effect (relative to Orexin A)” value is listed as 94.1%.

For the compound `CCN(C(=O)N[C@@H](CCC(F)(F)F)C(F)(F)F)[C@@H](c1cc(-c2cc(OC)c3nccn3c2)c(OC)cn1)C(F)(F)F` [Example 9-1, 1-ethyl-3-((S)-1,1,1,5,5,5-hexafluoropentan-2-yl)-1-((S)-2,2,2-trifluoro-1-(5-methoxy-4-(8-methoxyimidazo[1,2-a]pyridin-6-yl)pyridin-2-yl)ethyl)urea], the EC50 came to 0.9 nM and the “% of maximum agonist effect (relative to Orexin A)” value was determined as 99.7%.

Regarding `CCc1nc(-c2cc([C@H](N(CC)C(=O)N[C@@H](CCC(F)(F)F)C(F)(F)F)C(F)(F)F)ncc2OC)cn2ccnc12` [Example 9-2, 1-ethyl-1-((S)-1-(4-(8-ethylimidazo[1,2-a]pyrazin-6-yl)-5-methoxypyridin-2-yl)-2,2,2-trifluoroethyl)-3-((S)-1,1,1,5,5,5-hexafluoropentan-2-yl)urea], the EC50 is 5.5 nM and the “% of maximum agonist effect (relative to Orexin A)” value stood at 100.5%.

In the case of `CCN(C(=O)N[C@@H](CCC(F)(F)F)C(F)(F)F)[C@@H](c1cc(-c2nc(OC)c3nccn3c2C)c(OC)cn1)C(F)(F)F` [Example 9-3, 1-ethyl-3-((S)-1,1,1,5,5,5-hexafluoropentan-2-yl)-1-((S)-2,2,2-trifluoro-1-(5-methoxy-4-(8-methoxy-5-methylimidazo[1,2-a]pyrazin-6-yl)pyridin-2-yl)ethyl)urea], the 50% effective concentration (EC50) amounted to 6.2 nM and the “% of maximum agonist effect (relative to Orexin A)” value is given as 100.7%.

`CCN(C(=O)N[C@@H](CCC(F)(F)F)C(F)(F)F)[C@H](C)c1cc(-c2cc(OC)c3ncoc3c2)c(OC)cn1` [Example 9-4, 1-ethyl-3-((S)-1,1,1,5,5,5-hexafluoropentan-2-yl)-1-((R)-1-(5-methoxy-4-(4-methoxybenzo[d]oxazol-6-yl)pyridin-2-yl)ethyl)urea]: the EC50 amounted to 7.5 nM and the “% of maximum agonist effect (relative to Orexin A)” value is given as 99.6%.

Take `CCc1cc(-c2cc([C@@H](C)N(CC)C(=O)N[C@@H](CCC(F)(F)F)C(F)(F)F)ncc2OC)cc2ccnn12` [Example 9-5, 1-ethyl-1-((R)-1-(4-(7-ethylpyrazolo[1,5-a]pyridin-5-yl)-5-methoxypyridin-2-yl)ethyl)-3-((S)-1,1,1,5,5,5-hexafluoropentan-2-yl)urea]: the EC50 was 16.3 nM and the “% of maximum agonist effect (relative to Orexin A)” value is reported as 99.6%.

For the compound `CCN(C(=O)N[C@@H](CCC(F)(F)F)C(F)(F)F)[C@@H](c1cc(-c2cc(OC)c3ncn(C)c3c2)c(OC)cn1)C(F)(F)F` [Example 9-7, 1-ethyl-3-((S)-1,1,1,5,5,5-hexafluoropentan-2-yl)-1-((S)-2,2,2-trifluoro-1-(5-methoxy-4-(4-methoxy-1-methyl-1H-benzo[d]imidazol-6-yl)pyridin-2-yl)ethyl)urea], the EC50 was found to be 29.8 nM and the “% of maximum agonist effect (relative to Orexin A)” value was determined as 100.4%.

As for `CCN(C(=O)N[C@@H](CCC(F)(F)F)C(F)(F)F)[C@@H](c1cc(-c2cc(OC)n3nccc3n2)c(OC)cn1)C(F)(F)F` [Example 9-8, 1-ethyl-3-((S)-1,1,1,5,5,5-hexafluoropentan-2-yl)-1-((S)-2,2,2-trifluoro-1-(5-methoxy-4-(7-methoxypyrazolo[1,5-a]pyrimidin-5-yl)pyridin-2-yl)ethyl)urea], the concentration giving a half-maximal response (EC50) is 44 nM and the “% of maximum agonist effect (relative to Orexin A)” value stood at 99.5%.

With `CCN(C(=O)N[C@@H](CCC(F)(F)F)C(F)(F)F)[C@@H](c1cc(-c2cc(F)c3ncnn3c2)c(OC)cn1)C(F)(F)F` [Example 9-10, 1-ethyl-3-((S)-1,1,1,5,5,5-hexafluoropentan-2-yl)-1-((S)-2,2,2-trifluoro-1-(4-(8-fluoro-[1,2,4]triazolo[1,5-a]pyridin-6-yl)-5-methoxypyridin-2-yl)ethyl)urea], the EC50 was determined as 608 nM and the “% of maximum agonist effect (relative to Orexin A)” value is given as 97.1%.

In the case of `CCN(C(=O)N[C@@H](CCC(F)(F)F)C(F)(F)F)[C@@H](c1cc(-c2nc(OC)c3nccn3n2)c(OC)cn1)C(F)(F)F` [Example 9-11, 1-ethyl-3-((S)-1,1,1,5,5,5-hexafluoropentan-2-yl)-1-((S)-2,2,2-trifluoro-1-(5-methoxy-4-(4-methoxyimidazo[2,1-f][1,2,4]triazin-2-yl)pyridin-2-yl)ethyl)urea], the EC50 was 2.6 nM and the “% of maximum agonist effect (relative to Orexin A)” value is on record as 99.5%.

For `CCN(C(=O)N[C@@H](CCC(F)(F)F)C(F)(F)F)[C@@H](c1cc(-c2cn3ccnc3c(OC)n2)c(OC)cn1)C(F)(F)F` [Example 10-1, 1-ethyl-3-((S)-1,1,1,5,5,5-hexafluoropentan-2-yl)-1-((S)-2,2,2-trifluoro-1-(5-methoxy-4-(8-methoxyimidazo[1,2-a]pyrazin-6-yl)pyridin-2-yl)ethyl)urea], the EC50 turned out to be 1.1 nM and the “% of maximum agonist effect (relative to Orexin A)” value is on record as 100.4%.

In the case of `CCN(C(=O)N[C@@H](CCC(F)(F)F)C(F)(F)F)[C@H](C)c1cc(-c2cn3ccnc3c(OC)n2)c(OC)nn1` [Example 10-3, 1-ethyl-3-((S)-1,1,1,5,5,5-hexafluoropentan-2-yl)-1-((R)-1-(6-methoxy-5-(8-methoxyimidazo[1,2-a]pyrazin-6-yl)pyridazin-3-yl)ethyl)urea], the EC50 amounted to 0.8 nM and the “% of maximum agonist effect (relative to Orexin A)” value came to 101.7%.

Turning to `CCN(C(=O)N[C@@H](CCC(F)(F)F)C(F)(F)F)C(c1ncc(OC)c(-c2cn3ccnc3c(OC)n2)n1)C(F)(F)F` (stereo partly drawn) [Example 10-4, 1-ethyl-3-((S)-1,1,1,5,5,5-hexafluoropentan-2-yl)-1-(2,2,2-trifluoro-1-(5-methoxy-4-(8-methoxyimidazo[1,2-a]pyrazin-6-yl)pyrimidin-2-yl)ethyl)urea], the EC50 came out at 1.3 nM and the “% of maximum agonist effect (relative to Orexin A)” value was found to be 100.7%.
